In patent US12102685B2, “Immodulator peptides covalently modified with small molecules” (priority 2020, dated 2024):
Marks after values point to notes of the source that are not given here. Peptide text beside a SMILES is read from it.

What was measured:
[1] = Iron binding of separately labeled peptides (x2E e); conditions: each peptide labeled separately; IM3 = 100; ferric iron
Protocol: (§1) Experiments were conducted by the procedure described above. Ferric iron-charged NTA-coated 96-well plates were used as described. 1 ug/well immodulator peptide complexed to Alexa-488-labeled streptavidin in PBS buffer was added (60 min at room temperature). The plate was washed and counted in a standard fluorometer (excitation/emission: 485/525 nm). The results (fluorescence) show improved iron-binding by the three peptides extended C-terminally by the AVD, (dA)VD, and FVS tripeptides. **p<0.01 vs IM3 control IM3: 200±29; IM4: 45±37**; IM5: 130±77; IM3AVD: 434±29**; IM3dAVD: 418±28**; IM3FVS: 371±33** • (c) Competition assay. The same procedure was used as the preceding experiment, except that 375 ng/well labeled IM3 peptide was used, plus 10× of the indicated unlabeled peptide. ‘No competing peptide’ control value was set to 100. *p<0.05 vs “no peptide” control Competing Peptide/Fluorescence • None: 100±38; IM4: 125±26; IM3: 63±27*; IM5: 40±14*; IM3AVD: 10±28* • (d) Competition assay. The same procedure was used as the preceding experiment, except that labeled IM3AVD peptide was used. **p<0.01 vs “no competing peptide” control • None: 100±9; IM4: 144±44; IM3: 35±16**; IM5: 30±19**; IM3AVD: 9±19** • (e) The same procedure was used as the preceding experiment, except that each peptide was labeled with Alexa-488-labeled streptavidin in PBS buffer and used separately. Binding to IM3 was set to =100. *p<0.05, **p<0.01 vs IM3 control. (Labeled Peptide/Fluorescence) IM1: 1.8±0.4**; IM2: 3.0±1.8**; IM3: 100.0±16.8; IM4: 7.2±1.7*; IM5: 86.7±6.4; IM6: 85.9±14.9; IM3AVD:137.7±11.8*; IM3dAVD:147.4±22.9*; IM3FVS: 101.5±10.5.

[2] = Binding to heparin-agarose spin column (x3D); conditions: 1 ug SA488-labelled peptide
Protocol: 1 ug Streptavidin-Alexa 488 conjugate (SA488)-labelled IM peptide in PBS buffer was loaded on a spin column packed with 0.2 ml bed volume heparin-agarose (G-Biosciences, St. Louis, MO). The column was centrifuged for 2 min at 2,000 G and the flow-through was collected. The column was then washed with 0.3 ml 1% BSA in PBS buffer and the column spin repeated. Flowthrough and wash were pooled and duplicate 20 uL aliquots counted in a standard fluorometer (excitation/emission 485/525 nm). Results are expressed as percentage of input counts that bound the heparin-agarose column, versus flowthrough. Percent counts bound to heparin-agarose resin are shown below. IM3, IM5 and IM6 peptides bind heparin-agarose in this assay.

[3] = Binding to Echelon PPI Arrays (x9B); design: key: 0=no binding; 1=low binding; 2=medium binding; 3=high binding; conditions: 100 pmol PPI spot, colorimetric readout
Text: Binding of immodulator peptides to Echelon PPI Arrays. PPI arrays were purchased from Echelon Biosciences (Sal Lake City, UT) and used according to the manufacturer's recommendations. Colorimetric readout from each 100 pmol PPI spot in the array is expressed as 0=no binding, 1=low binding, 2=medium binding and 3=high binding. […] In addition, IM3 and IM5 show slight binding to PI(3,4,5)P3.

A375 cells = experiment: A375 cell viability, CellTiterGlo (x10A); format: cell-based; conditions: 72 hours
Protocol: (§2) Immune modulation functions of immodulator peptides have great potential untility in the field of cancer. A375 cell line was obtained from American Type Culture Collection (ATCC). They were grown in a T-75 flask in DMEM Medium containing 10% fetal bovine serum and penicillin-streptomycin at 37° C. in a humidified, 5% CO2 incubator. Cells ([…], 2,000 cells/well) were plated in a 96-well plate and incubated overnight at 37° C. in a humidified, 5% CO2 incubator. Next day, […] of compounds were added (quadruplicate wells). After 72 hour incubation with the compound, cell viability was measured in a luminometer after the addition of […] CellTiterGlo reagent (Promega Inc, Madison, WI) as recommended by the manufacturer.
Experiment x10A. Anti-cancer activity of immodulator peptides on A375 cells. A 96-well plate was seeded with 2,000 A375 cells per well in DMEM medium containing 10% FBS and PenStrep. After 24 hrs at 37 deg C., compounds and peptides were added (each treatment done in quadruplicate). After a further 72 hours incubation, 100 uL/well of CTG assay reagent purchased from Promega Inc. (Madison, WI) was added. Plate was read after 10 minutes, as recommended by the manufacturer. Peptides were added at 2 uM. The results of this experiment are shown below, expressed as percent survival ofA375 cells.

[4] = tested on: COL1 in HFF-1 dermal fibroblasts; experiment: Collagen-1 ELISA in HFF-1 dermal fibroblasts (x11A); format: cell-based; conditions: peptide 2 uM, 72 hour; control (buffer) = 100
Protocol: as §2, with “have” for “have great”, “cosmetics. HFF-1” for “cancer. A375”, “Cells” for “They”, “compound, supernatants were collected for Collagen-1 ELISA assay and” for “compound,”
Collagen stimulating activity of immodulator peptides in HFF-1 dermal fibroblasts. Peptides were added to cells at 2 uM. COL1 immunoreactivity was measured in the supernatants of cultured cells by ELISA using a rabbit monoclonal anti-COL1 primary antibody (Abcam, Cambridge, MA). Control (buffer) value of immunoreactivity was set to 100.

[5] = Iron-binding competition assay with labeled IM3 (x2E c); conditions: 375 ng/well labeled IM3 plus 10x unlabeled peptide; no competing peptide = 100
Protocol: as §1

[6] = Iron-binding competition assay with labeled IM3AVD (x2E d); conditions: labeled IM3AVD plus 10x unlabeled peptide; no competing peptide = 100
Protocol: as §1

Row | SMILES | fluorescence of labeled peptide [1] | Percent Flowthrough [2] | Percent retained [2] | binding to PI spot [3] | binding to PI(3,4,5)P3 spot [3] | binding to PI(4)P1 spot [3] | binding to PI(4,5)P2 spot [3] | fluorescence of labeled IM3 with competing peptide [5] | fluorescence of labeled IM3AVD with competing peptide [6] | percent survival of A375 cells (A375 cells; peptide 2 uM, Buffer) | COL1 immunoreactivity in supernatant [4] | percent survival of A375 cells (A375 cells; peptide 2 uM + Kin1400 4 uM (RIG-I agonist))
1 | CC[C@H](C)[C@H](NC(=O)CNC(=O)[C@H](CCCNC(=N)N)NC(=O)[C@H](CCCCN)NC(=O)[C@H](CCCNC(=N)N)NC(=O)CNC(=O)[C@H](CCCNC(=N)N)NC(=O)[C@H](CO)NC(=O)[C@@H]1CCCN1C(=O)[C@H](CCCCN)NC(=O)[C@H](CS)NC(=O)[C@H](CCC(N)=O)NC(=O)[C@H](CCCCN)NC(=O)[C@H](CCCNC(=N)N)NC(=O)[C@H](CCCCN)NC(=O)[C@H](Cc1ccc(O)cc1)NC(=O)[C@H](Cc1ccccc1)NC(=O)CNC(=O)[C@H](CCCCN)NC(=O)[C@@H](N)CCCNC(=N)N)C(=O)N[C@@H](CS)C(=O)N[C@@H](Cc1c[nH]c2ccccc12)C(=O)O [IM5] (H-RKGFYKRKQCKPSRGRKRGICW-OH; N-terminus and C-terminus assumed) | 86.7±6.4 | 3.6% | 96.4% | 0 | 1 | 2 | 3 | 40±14 | 30±19 |  | 93 | 
2 | N=C(N)NCCC[C@H](NC(=O)CNC(=O)[C@H](CCCCN)NC(=O)[C@H](CO)NC(=O)[C@@H]1CCCN1C(=O)[C@H](CCCNC(=N)N)NC(=O)[C@H](CS)NC(=O)[C@H](CCC(N)=O)NC(=O)[C@H](CCCCN)NC(=O)[C@H](CCCCN)NC(=O)[C@H](CCCCN)NC(=O)[C@H](Cc1ccc(O)cc1)NC(=O)[C@H](Cc1ccccc1)NC(=O)CNC(=O)[C@H](CCCCN)NC(=O)[C@@H](N)CCCCN)C(=O)N[C@@H](CCCCN)C(=O)N[C@@H](CCCNC(=N)N)C(=O)NCC(=O)N[C@@H](Cc1ccccc1)C(=O)N[C@@H](CS)C(=O)N[C@@H](Cc1c[nH]c2ccccc12)C(=O)O [IM3] (H-KKGFYKKKQCRPSKGRKRGFCW-OH; N-terminus and C-terminus assumed) | 100.0±16.8 | 2.3% | 97.7% | 0 | 1 | 0 | 3 | 63±27 | 35±16 | 100.3% | 101 | 62.2** percent
3 | CC(C)C[C@H](NC(=O)[C@H](C)NC(=O)[C@@H]1CCCN1C(=O)[C@H](Cc1c[nH]cn1)NC(=O)[C@H](CS)NC(=O)[C@H](CCC(N)=O)NC(=O)[C@H](CCCCN)NC(=O)[C@@H]1CCCN1C(=O)[C@H](Cc1c[nH]cn1)NC(=O)[C@H](Cc1ccccc1)NC(=O)[C@H](CC(N)=O)NC(=O)CNC(=O)[C@H](CC(N)=O)NC(=O)[C@@H](N)CCCNC(=N)N)C(=O)N[C@@H](CC(=O)O)C(=O)NCC(=O)N[C@@H](CCC(N)=O)C(=O)N[C@@H](CCCNC(=N)N)C(=O)NCC(=O)N[C@@H](CCCCN)C(=O)N[C@@H](CS)C(=O)N[C@@H](Cc1c[nH]c2ccccc12)C(=O)O [IM4] (H-RNGNFHPKQCHPALDGQRGKCW-OH; N-terminus and C-terminus assumed) | 7.2±1.7 | 100.0% | 0% | 0 | 0 | 0 | 0 | 125±26 | 144±44 | 98.8% | 105 | 

Continued, in another order:

Row | fluorescence of labeled peptide [1] | Percent Flowthrough [2] | Percent retained [2] | binding to PI spot [3] | binding to PI(3,4,5)P3 spot [3] | binding to PI(4)P1 spot [3] | binding to PI(4,5)P2 spot [3] | fluorescence of labeled IM3 with competing peptide [5] | fluorescence of labeled IM3AVD with competing peptide [6] | SMILES | percent survival of A375 cells (A375 cells; peptide 2 uM, Buffer) | COL1 immunoreactivity in supernatant [4] | percent survival of A375 cells (A375 cells; peptide 2 uM + Kin1400 4 uM (RIG-I agonist))
4 | 3.0±1.8 | 100.0% | 0% | 0 | 0 | 0 | 0 |  |  | CSCC[C@H](NC(=O)[C@H](CCCCN)NC(=O)[C@H](CS)NC(=O)[C@H](CCC(N)=O)NC(=O)[C@H](CCCCN)NC(=O)[C@H](CC(C)C)NC(=O)[C@H](CC(N)=O)NC(=O)[C@H](Cc1ccc(O)cc1)NC(=O)[C@H](CC(C)C)NC(=O)CNC(=O)[C@H](Cc1c[nH]cn1)NC(=O)[C@@H](N)CCCCN)C(=O)N[C@@H](CO)C(=O)N[C@@H](CC(C)C)C(=O)N[C@@H](CC(N)=O)C(=O)NCC(=O)N[C@@H](CCC(N)=O)C(=O)N[C@@H](CCCNC(=N)N)C(=O)NCC(=O)N[C@@H](CCC(=O)O)C(=O)N[C@@H](CS)C(=O)N[C@@H](Cc1c[nH]c2ccccc12)C(=O)O [IM2] | 99.0% | 109 | 
5 | 1.8±0.4 | 100.0% | 0% | 0 | 0 | 0 | 0 |  |  | CSCC[C@H](NC(=O)[C@H](CO)NC(=O)[C@@H](NC(=O)[C@H](CCC(=O)O)NC(=O)[C@H](CS)NC(=O)[C@H](CCC(N)=O)NC(=O)[C@H](CCCNC(=N)N)NC(=O)[C@H](CO)NC(=O)[C@H](Cc1c[nH]cn1)NC(=O)[C@H](Cc1ccc(O)cc1)NC(=O)[C@H](Cc1ccccc1)NC(=O)CNC(=O)[C@H](CC(N)=O)NC(=O)[C@@H](N)CCCCN)[C@@H](C)O)C(=O)N[C@@H](CC(=O)O)C(=O)NCC(=O)N[C@@H](CCC(=O)O)C(=O)N[C@@H](C)C(=O)NCC(=O)N[C@@H](CC(C)C)C(=O)N[C@@H](CS)C(=O)N[C@@H](Cc1c[nH]c2ccccc12)C(=O)O [IM1] (H-KNGFYHSRQCETSMDGEAGLCW-OH; N-terminus and C-terminus assumed) | 102.1% | 98 | 
